Results taken from patent publication US20060178424A1, “Preventing atrial fibrillation (af) with the use of stain drugs” (priority 2003, published 2006).
Entries after “also recorded” stand apart in the source; their conditions may differ.

Key:
[1] = system: atrial tachycardia-induced remodeling; details: dog, cited from earlier work; for Prevention of effects of 1-week atrial tachycardia: literature refs 7-9
[2] = General properties (body weight, hemodynamic variables) at open-chest study; assay type: in vivo, dog; details: mean±SEM; for Body weight: ATP with oral treatment
Description: (§1) Unipolar leads were inserted through jugular veins into the right ventricular (RV) apex and right atrial (RA) appendage under fluoroscopic guidance and connected to pacemakers (Medtronic) in subcutaneous pockets in the neck. A bipolar electrode was also inserted into the RA for atrial stimulation and recording during serial electrophysiological study (EPS). AV block was created by radiofrequency catheter ablation to control ventricular response during atrial tachypacing (ATP) and the RV pacemaker was programmed to pace at 80 bpm.
(§2) Body temperature was maintained at 37° C., and a femoral artery and both femoral veins were cannulated for pressure monitoring and drug administration. A median sternotomy was performed, and bipolar electrodes were hooked to the RA and left atrial (LA) appendage for recording and stimulation. A programmable stimulator (Digital Cardiovascular Instruments) was used to deliver twice-threshold currents. […] AF duration was assessed as described above and AF vulnerability was determined as the percentage of atrial sites at which AF could be induced by single extrastimuli.

[3] = system: atrial tachypaced dogs (atrial tachycardia-induced remodeling); experiment: Serial closed-chest electrophysiological study during 7-day atrial tachypacing (400 bpm); assay type: in vivo, dog; details: 7-day ATP, in words
Description: as §1
(§3) After 24 hours for recovery, a baseline closed-chest EPS was performed under anesthesia with ketamine, diazepam, and isoflurane, and then ATP (400 bpm) was initiated. Closed-chest EPS was repeated at 2,4 and 7 days of ATP and a final open-chest EPS was performed on day 8 under anesthesia with morphine and α-chloralose.

[4] = system: atrial tachypaced dogs (atrial tachycardia-induced remodeling); experiment: Final open-chest electrophysiological study after atrial tachypacing; assay type: in vivo, dog
Description: as §1, §3, §2

Structure (SMILES)	Prevention of effects of 1-week atrial tachycardia [1]	Diastolic BP [2] [mm Hg]	HR (heart rate) [2] [bpm]	LAP (left atrial pressure) [2] [mm Hg]	LVEDP (left ventricular end-diastolic pressure) [2] [mm Hg]	LVSP (left ventricular systolic pressure) [2] [mm Hg]	Systolic BP [2] [mm Hg]	Body weight [2] [kg]	Atrial tachycardia-induced AF promotion (AF duration progression) versus ATP-only [3]	ERP values as a function of cycle length versus ATP-only dogs ([4]; RA appendage, final open-chest study, in words)	AF requiring cardioversion for termination, share of dogs ([4]; following ATP, ATP-only 57%) [%]	Effect on tachypacing-induced ERP shortening and AF promotion (remodeling) ([4]; one week of atrial tachypacing, in words)	Attenuation of ERP changes caused by 48-hour atrial tachycardia ([1]; Carnes et al)
CCCCc1oc2ccccc2c1C(=O)c1cc(I)c(OCCN(CC)CC)c(I)c1 [amiodarone]	prevent the effects of 1-week atrial tachycardia in the dog												
COCC(=O)O[C@]1(CCN(C)CCCc2nc3ccccc3[nH]2)CCc2cc(F)ccc2[C@@H]1C(C)C [mibefradil]	prevent the effects of 1-week atrial tachycardia in the dog												
CCC(C)(C)C(=O)O[C@H]1C[C@@H](C)C=C2C=C[C@H](C)[C@H](CC[C@@H]3C[C@@H](O)CC(=O)O3)[C@H]21 [simvastatin]		60 ± 7	169 ± 6	8 ± 1	9 ± 1	127 ± 5	131 ± 4	29 ± 2					
O=C1O[C@H]([C@@H](O)CO)C(O)=C1O [vitamin C]		41 ± 6	145 ± 9	5 ± 1	6 ± 1	107 ± 8	107 ± 8	32 ± 2	not significantly different from ATP-only dogs	No significant differences	33	unaffected; also recorded: not altered; also recorded: not shared; also recorded: not observed	effectiveness
